Entries after “also recorded” stand apart in the source; their conditions may differ.
Key:
[1] = tested on: SiHa cervical cancer cell line (HPV 16); assay: Sphere formation assay, SiHa cervical cancer cell line; format: cell-based, human; details: incubated with 45 μM cisplatin
Protocol: (§1) The ability of cervical cells from the SiHa cervical cancer cell line (transformed with Human Papillomavirus 16 or HPV 16) and from primary cultures of human uterine cervical cancer cells derived from patients to form spheroid bodies following treatment with antisense oligonucleotides directed to antisense non-coding chimeric mitochondrial RNA (ASncmtRNA) was determined. The assay utilized measured the numbers of spheroid bodies, also referred to herein as spheres, which are formed by cancer stem cells.
(§2) The experimental procedure and assay utilized herein measured the effect of antisense oligonucleotides that were targeted to ASncmtRNA on the number of spheres formed by cervical cancer cells (FIG. 6). Sphere formation was measured in the SiHa cervical cancer cell line and primary cultures of human cervical cancer cells derived from patients (CerCa). CerCa 1, CerCa 2 and CerCa 3 (transformed with Human Papillomavirus 45) were obtained from patient biopsies. […]
(§3) About 1×10^5 cells resuspended in MEGM™ medium supplemented with 20 ng/ml of hEGF, hydrocortisone, insulin, GA-1000 (Lonza), 0.5×B-27 without vitamin A (Invitrogen), 20 ng/ml of FGFb (Invitrogen) without CFS were seeded on ultra-low adherence plates (Corning). Ten days later, the spheres were counted under phase microscopy, collected and filtered using a nylon mesh of 70 μm to discard single cells. […]

[2] = tested on: CerCa 1 primary cervical tumor cells (HPV 16); assay: Sphere formation assay, primary cervical tumor cells CerCa 1; format: cell-based, human; details: incubated with 45 μM cisplatin
Protocol: as §1
as §2, with “(CerCa).” for “(CerCa). CerCa 1, CerCa 2 and CerCa 3 (transformed with Human Papillomavirus 45) were obtained from patient biopsies.”
as §3
(§4) The different primary cultures were analyzed with the PGMY09/11 Linear Array (Roche). […]

[3] = tested on: CerCa 2 primary cervical tumor cells (HPV 16); assay: Sphere formation assay, primary cervical tumor cells CerCa 2; format: cell-based, human; details: incubated with 45 μM cisplatin
Protocol: as §1
as §2, with “(CerCa).” for “(CerCa). CerCa 1, CerCa 2 and CerCa 3 (transformed with Human Papillomavirus 45) were obtained from patient biopsies.”
as §3, §4

[4] = tested on: CerCa 3 primary cervical tumor cells (HPV 45); assay: Sphere formation assay, primary cervical tumor cells CerCa 3; format: cell-based, human; details: incubated with 45 μM cisplatin
Protocol: as §1
as §2, with “(CerCa).” for “(CerCa). CerCa 1, CerCa 2 and CerCa 3 (transformed with Human Papillomavirus 45) were obtained from patient biopsies.”
as §3, §4

[5] = tested on: B16F10 melanoma cells; assay: Relapse and metastasis after surgical removal of B16F10 melanoma tumors (Example 3); format: in vivo, C57BL/6 mice
Protocol: One common clinical protocol for melanoma includes surgical resection follow by systemic administration of drugs. Similar protocols are used in the practice of other tumors. In the melanoma model presented in this representative example, B16F10 melanoma cells (100,000 cells in 200 μl of saline) were injected subcutaneously on the back of C57BL/6 mice. About 11 to 12 days post-cell injection, tumors between 700 to 1.000 mm3 developed (a 1,000 mm3 tumor in mice is considered equivalent to a 3,000 cc3 tumor in humans). […] Tumors were surgically resected under anesthesia and the wound washed once with 250 μl containing 100 μg of ASO 1560S or ASO 154. After surgical suture, a bolus of 200 μl saline containing 100 μg of ASO 154 or ASO 1560S was applied into the cavity left by the tumor. Three days post-surgery, mice received on alternative days, 3 intravenous (FIG. 9; 1st, 3rd, 5th arrows on timeline) or 3 intraperitoneal (FIG. 9; 2nd, 4th, 6th arrows on timeline) injections of 250 μl saline containing 100 μg of either ASO 1560S or ASO 154. Tumor growth was measured twice a week with a caliper.
Relapse of tumor growth in mice treated with ASO 154 was observed about 3 days post-surgery and tumor volume of about 1,500 mm3 was reached on about the 25th day post-cell injection (FIG. 9). These mice were euthanized under anesthesia, and the tumor and other organs were fixed and saved for further studies. […] Livers and lungs were analyzed for the presence of metastatic nodules.

[6] = tested on: RENCA cells; assay: Relapse and survival after surgical removal of RENCA kidney tumors, single post-surgery treatment (Example 4); format: in vivo, mice; details: in liposomes
Protocol: 100,000 RENCA cells (ATCC® CRL-2947™ Mus musculus kidney renal adenocarcina) were injected subcutaneously at day 0. […] The animals were sutured and […] injected at the site of the removed tumor with 100 μg of ASO 154 (FIG. 11, squares) or ASO 1560S (FIG. 11, triangles), both formulated in liposomes, in 250 μl. No further treatment was given.

[7] = tested on: RENCA cells; assay: Relapse and survival after surgical removal of RENCA kidney tumors, intraperitoneal/intravenous treatment (Example 5); format: in vivo, mice; details: day 60; 25 μg ip and iv injections in liposomes
Protocol: 100,000 RENCA cells (ATCC® CRL-2947™ Mus musculus kidney renal adenocarcina) were injected subcutaneously on day 0 in 8 mice. […] Tumors of all animals were removed by surgery and divided in 2 groups. […] Post-suture, a bolus of 250 μl was intraperiotoneally injected in the place of where tumor had grown: the control group was injected with ASO 154 and the treated group with ASO 1560S. On days 13, 15, 17 and 19, intraperitoneal injections of 25 μg ASO 154 (FIG. 12, circles) or 25 μg ASO 1560S (FIG. 12, squares) formulated in liposomes were injected in a volume of 250 μl. On days 14, 16 and 18, the mice were injected intravenously with the same protocol. On day 22, all control animals had tumors larger than 1,200 mm3 and were sacrificed. On day 60, all animals treated with ASO 1560S had no tumors and were still alive (FIG. 12).

[8] = tested on: B16F10 melanoma cells; assay: Relapse and survival after surgical removal of B16F10 melanoma tumors, intraperitoneal treatment (Example 6); format: in vivo, mice; details: 25 and 50 μg intraperitoneal injections post-surgery
[9] = tested on: MB49 cells (mouse bladder cancer cells); assay: Tumors and survival after surgical removal of MB49 bladder carcinoma tumors (Example 7); format: in vivo, mice
Protocol: Twelve mice were injected subcutaneously with a 100,000 MB49 cells (mouse bladder cancer cells). After 15 days mice had tumors of an average diameter of 800 mm3. Tumors were surgically removed (day 0) and a bolus of 200 μl containing 100 μg of ASO 154 (control) or ASO 1560S (active drug) was injected at the site of the surgery. Three days post-surgery mice were divided in 2 groups and treated intraperitoneally or intravenously with 100 μl injections containing ASO 154 (control group) or ASO 1560S (treated group) as indicated in FIG. 14. Only one mouse treated intraperitoneally with ASO 1560S developed a tumor.

[10] = FIG. 14, intraperitoneal or intravenous administration
[11] = treated intravenously after 100 μg bolus at surgery site

`N.N.[Cl][Pt][Cl]` [cisplatin] was tested, and the Sphere formation [1] was “abolished sphere formation”, the Sphere formation [2] was “abolished sphere formation” and the Sphere formation [3] was “abolished sphere formation”. For the same compound, the Sphere formation [4] was “no effect; also recorded: resistant to cisplatin treatment”.
“ASO 1560S: antisense oligonucleotide targeted to the mouse ASncmtRNAs (SEQ ID NO: 198) (antisense CACCCTCTAACCTAGAGAAG; all phosphorothioate, sugars by position and methylation of C not given here)” was tested, and the “Relapse of tumor growth after surgery” value ([5]; 100 μg wound wash, 100 μg bolus, then 3 iv and 3 ip injections of 100 μg) was “No relapse; also recorded: prevented or suppressed cancer relapse; also recorded: absence of tumor relapse”, the Detectable tumors ([5]; 130 days post-cell injection) was “without the presence of detectable tumors” and the “Metastatic nodules in lungs and liver” value ([5]; organs collected at euthanasia) was “lacked the presence of metastatic nodules; also recorded: absence of metastatic nodules”. The Survival ([6]; day 61) was “still alive; also recorded: complete survival”, the “Tumors / tumor relapse after surgery” value ([6]; up to day 61, 100 μg wash and 100 μg injection) was “no tumors; also recorded: absence of tumor relapse” and the Survival [7] was “still alive”. For the same compound, the “Tumors / relapse after surgery” value [7] was “no tumors; also recorded: absence of relapse”, the Survival [8] was “complete survival” and the “Tumor relapse after surgery” value [8] was “absence of the intradermal melanoma tumor relapse”. For the same compound, the Survival [9, 10] was “complete survival”, the Tumors [9, 10] was “absence of tumors” and the “Number of mice that developed a tumor” value ([9]; treated intraperitoneally after 100 μg bolus at surgery site) was “one”. The Survival [9, 11] was “full survival” and the Tumors [9, 11] was “remained without tumors”.

From patent publication US10457943B2, “Antisense oligonucleotides for treatment of cancer stem cells” (Andes Biotechnologies Global, Inc., priority 2013, dated 2019)
